Measurements from ChEMBL document CHEMBL5441456, “ASAP - SARS-CoV-2 nsp3 macrodomain dose response” (2024).
Where “and” joins values, the source holds several entries; their conditions need not be identical. Identical values can stand only once.

target: Replicase polyprotein 1ab (Severe acute respiratory syndrome coronavirus 2, UniProt P0DTD1); experiment: Functional biochemical assay to identify treatments for viral infectious disease that targets SARS-COV-2 nsp3 macrodomain, whereby the mechanism of action displaces an ADP-Ribose modified peptide from the binding site. Utilizing a time-resolved fluorescence method to measure binding by reading the emitted fluorescence intensity in two wavelengths.

Row | Structure (SMILES) | IC50
1 | CC(C)[C@H](Nc1ncnc2[nH]ccc12)C(=O)O | 34.1 µM and 33.8 µM
2 | CNC(=O)c1cc2c(N[C@@H](c3ccc4c(c3)OCCO4)C(C)C)ncnc2[nH]1 | 0.45 µM and 0.366 µM
3 | CCNC(=O)c1cc2c(N[C@@H](c3ccc4c(c3)OCCO4)C(C)C)ncnc2[nH]1 | 0.28 µM and 0.305 µM and 0.287 µM and 0.614 µM
4 | Cc1ncc(-c2cc3c(N[C@@H](c4ccc5c(c4)OCCO5)C(C)C)ncnc3[nH]2)cn1 | 0.479 µM and 0.585 µM
5 | CC(C)[C@@H](Nc1ncnc2[nH]c(-c3cnn(CCC(N)=O)c3)cc12)c1ccc2c(c1)OCCO2 | 0.274 µM and 0.319 µM
6 | CC(C)[C@@H](Nc1ncnc2[nH]c(C(N)=O)cc12)c1ccc2c(c1)OCCO2 | 0.453 µM and 0.466 µM
7 | Cn1ncc(-c2cc3c(N[C@@H](c4ccc5c(c4)OCCO5)C(C)(C)C)ncnc3[nH]2)c1C#N | 0.309 µM and 0.332 µM
8 | CC(C)[C@@H](Nc1ncnc2[nH]c(-c3cnn(C)n3)cc12)c1ccc2c(c1)OCCO2 | 0.485 µM and 0.517 µM
9 | CC(C)C[C@@H](Nc1ncnc2[nH]ccc12)C(=O)O | > 99.5 µM
10 | CC(C)[C@@H](Nc1ncnc2[nH]c(C3CCS(=O)(=O)CC3)cc12)c1ccc2c(c1)OCCO2 | 1.19 µM and 1.78 µM
11 | CCn1ncc(-c2cc3c(N[C@@H](c4ccc5c(c4)OCCO5)C(C)C)ncnc3[nH]2)c1C#N | 0.857 µM and 0.8 µM
12 | COc1cnn(C)c1-c1cc2c(N[C@@H](c3ccc4c(c3)OCCO4)C(C)C)ncnc2[nH]1 | 50.9 µM and 55.9 µM
13 | CC(C)[C@@H](Nc1ncnc2[nH]c(-c3ccc(-n4cccn4)cc3)cc12)c1ccc2c(c1)OCCO2 | > 99.5 µM
14 | CC(C)[C@@H](Nc1ncnc2[nH]c([C@@H]3CCOC3)cc12)c1ccc2c(c1)OCCO2 | 1.86 µM and 1.95 µM
15 | Cc1c(C#N)cncc1-c1cc2c(N[C@@H](c3ccc4c(c3)OCCO4)C(C)C)ncnc2[nH]1 | 19.2 µM and 16.3 µM
16 | C[C@@H](C(=O)O)[C@@H](NC(=O)c1ncnc2[nH]ccc12)c1ccc(Br)cc1 | 0.808 µM and 0.532 µM
17 | O=C(O)[C@@H]1C[C@H](F)CN1c1ncnc2[nH]ccc12 | > 99.5 µM
18 | O=C(O)[C@@H](CC1CC1)Nc1ncnc2[nH]ccc12 | > 99.5 µM
19 | CCC[C@@H](Nc1ncnc2[nH]ccc12)C(=O)O | > 99.5 µM
20 | CNC(=O)c1c[nH]c2ncnc(N[C@@H](c3ccc4c(c3)OCCO4)C(C)C)c12 | 0.728 µM and 0.692 µM
21 | CC(C)[C@@H](Nc1ncnc2[nH]c(-c3cccc4c3CN(C)C4=O)cc12)c1ccc2c(c1)OCCO2 | 2.15 µM and 2.54 µM
22 | O=C(O)[C@@H]1CC2(CCCCC2)CN1c1ncnc2[nH]ccc12 | > 99.5 µM
23 | CC(C)[C@@H](Nc1ncnc2[nH]ccc12)c1ccc2c(c1)CCCS2(=O)=O | 3.01 µM and 2.64 µM
24 | CC(C)[C@H](Nc1ncnc2[nH]c(-c3cnn(CC(N)=O)c3)cc12)c1ccc2c(c1)OCCO2 | 90 µM and 93.5 µM

Row | Structure (SMILES) | IC50
25 | CC(C)[C@@H](Nc1ncnc2[nH]c(-c3cncn3C)cc12)c1ccc2c(c1)OCCO2 | 5.77 µM and 7.42 µM
26 | CC(C)[C@@H](Nc1ncnc2[nH]cc(C(N)=O)c12)c1ccc2c(c1)OCCO2 | 0.786 µM and 0.865 µM
27 | CN1CC[C@@H]1[C@@H](Nc1ncnc2[nH]ccc12)c1ccc2c(c1)OCCO2 | > 99.5 µM and 66 µM
28 | COC(=O)c1c[nH]c2ncnc(N[C@@H](c3ccc4c(c3)OCCO4)C(C)C)c12 | 3.11 µM and 3.49 µM
29 | CC(C)[C@@H](Nc1ncnc2[nH]c(-c3cnn(C(C)C)c3C#N)cc12)c1ccc2c(c1)OCCO2 | 1.84 µM and 2.02 µM
30 | CC(C)[C@@H](Nc1ncnc2[nH]c(-c3ccnn3CC3CC3)cc12)c1ccc2c(c1)OCCO2 | 4.22 µM and 3.91 µM
31 | CO[C@H]1C[C@@H](C(=O)O)N(c2ncnc3[nH]ccc23)C1 | 79.4 µM and 83.6 µM
32 | CC(C)[C@@H](Nc1ncnc2[nH]c(-c3[nH]ncc3C3CC3)cc12)c1ccc2c(c1)OCCO2 | 16.1 µM and 14.3 µM
33 | COc1nc(N[C@@H](c2ccc3c(c2)OCCO3)C(C)C)c2cc[nH]c2n1 | > 99.5 µM
34 | O=C(O)[C@@H](CC(F)F)Nc1ncnc2[nH]ccc12 | 80.7 µM and 94.4 µM
35 | O=C(O)[C@@H](Nc1ncnc2[nH]ccc12)C1CC1 | 72.2 µM and 72 µM
36 | O=C(O)[C@H]1C[C@H](O)CN1c1ncnc2[nH]ccc12 | > 99.5 µM
37 | CC(C)[C@@H](Nc1ncnc2[nH]c(-c3ccn(C)n3)cc12)c1ccc2c(c1)OCCO2 | 0.972 µM and 1.02 µM
38 | COc1ccc([C@@H]2CN(C(=O)c3ncnc4[nH]ccc34)C[C@H]2C(=O)O)cc1 | > 99.5 µM
39 | Cc1cc(-c2cc3c(N[C@@H](c4ccc5c(c4)OCCO5)C(C)C)ncnc3[nH]2)[nH]n1 | 2.56 µM and 3.09 µM
40 | CC(C)[C@@H](Nc1ncnc2[nH]cc(C(=O)N(C)C)c12)c1ccc2c(c1)OCCO2 | 1.95 µM and 1.97 µM
41 | CNc1nc(N[C@@H](c2ccc3c(c2)OCCO3)C(C)C)c2cc[nH]c2n1 | > 99.5 µM
42 | CC(C)[C@@H](Nc1nc(N(C)C)nc2[nH]ccc12)c1ccc2c(c1)OCCO2 | > 99.5 µM
43 | O=C(Nc1ccc(C(=O)N[C@@H]2c3ccccc3C[C@@H]2C(=O)O)cc1)c1ccc2c(c1)OCCO2 | > 99.5 µM
44 | CC(C)[C@@H](Nc1ncnc2[nH]cc(C#N)c12)c1ccc2c(c1)OCCO2 | 4.36 µM and 3.82 µM
45 | COC(=O)c1cc2c(N[C@@H](c3ccc4c(c3)OCCO4)C(C)C)ncnc2[nH]1 | 5.31 µM and 6.5 µM
46 | COc1ccc([C@@H](Cc2nn[nH]n2)NC(=O)c2nc(C)nc3[nH]ccc23)cc1 | 1.84 µM and 1.65 µM
47 | CC(C)[C@@H](Nc1ncnc2[nH]c(-c3cncc(OCCN(C)C)c3)cc12)c1ccc2c(c1)OCCO2 | 0.903 µM and 0.891 µM
48 | CC(C)[C@@H](Nc1ncnc2[nH]c(-c3ccnn3C3CC3)cc12)c1ccc2c(c1)OCCO2 | 1.08 µM and 1.23 µM

Row | Structure (SMILES) | IC50
49 | CC(C)[C@@H](Nc1ncnc2[nH]cc(S(=O)(=O)N(C)C)c12)c1ccc2c(c1)OCCO2 | 3.45 µM and 3.98 µM
50 | O=C(O)[C@H](CC1CCCCC1)Nc1ncnc2[nH]ccc12 | 92.3 µM and 91.8 µM
51 | Cc1cnn(-c2ccc(-c3cc4c(N[C@@H](c5ccc6c(c5)OCCO6)C(C)C)ncnc4[nH]3)cc2)c1 | > 99.5 µM
52 | CNS(=O)(=O)c1c[nH]c2ncnc(N[C@@H](c3ccc4c(c3)OCCO4)C(C)C)c12 | 2.57 µM and 2.6 µM
53 | CC(C)[C@@H](Nc1ncnc2[nH]c(-c3cncc(C#N)c3)cc12)c1ccc2c(c1)OCCO2 | 5.81 µM and 7.13 µM
54 | COc1ccc([C@@H](Cc2nn[nH]n2)NC(=O)c2nc(OC)nc3[nH]ccc23)cc1 | 4.55 µM and 4.97 µM
55 | CC(C)[C@@H](Nc1ncnc2[nH]c(-c3ccc(C4(C#N)CC4)cc3)cc12)c1ccc2c(c1)OCCO2 | > 99.5 µM
56 | Cc1nnc(Nc2ccc(C(=O)N[C@@H]3c4cccc(O)c4C[C@@H]3C(=O)O)cc2)o1 | 7.16 µM and 7.38 µM
57 | CC(=O)c1ccc(-c2cc3c(N[C@@H](c4ccc5c(c4)OCCO5)C(C)C)ncnc3[nH]2)o1 | 1.51 µM and 1.45 µM
58 | COc1ccc(C(=O)Nc2ccc(C(=O)N[C@@H]3c4ccccc4C[C@@H]3C(=O)O)cc2)cc1S(=O)(=O)NCCN1CCCC1 | > 99.5 µM
59 | CC(C)[C@@H](Nc1ncnc2[nH]ccc12)c1ccc2c(c1)CCNC2=O | 15.3 µM and 15 µM
60 | O=C(Nc1ccc(C(=O)N[C@@H]2c3ccccc3C[C@@H]2C(=O)O)cc1)c1ccc(C(=O)NC2CC2)cc1 | > 99.5 µM
61 | CC(C)[C@H](Nc1ncnc2[nH]ccc12)c1ccc2c(c1)NC(=O)CO2 | > 99.5 µM
62 | COCCn1ncc(-c2cc3c(N[C@@H](c4ccc5c(c4)OCCO5)C(C)C)ncnc3[nH]2)c1C#N | 0.394 µM and 0.449 µM
63 | Cc1nnc(Nc2ccc(C(=O)N[C@H]3c4cccc(O)c4C[C@H]3C(=O)O)cc2)o1 | > 99.5 µM
64 | Cc1noc(C)c1-c1cc2c(N[C@@H](c3ccc4c(c3)OCCO4)C(C)C)ncnc2[nH]1 | 16.7 µM and 18.5 µM
65 | O=C(O)[C@H]1C[C@@H](F)CN1c1ncnc2[nH]ccc12 | > 99.5 µM
66 | Cc1nnc(Nc2ccc(C(=O)N[C@H]3c4cccc(O)c4C[C@@H]3C(=O)O)cc2)o1 | > 99.5 µM
67 | COc1ccc([C@@](C)(CC(=O)O)NC(=O)c2ncnc3[nH]ccc23)cc1 | 19.3 µM and 18.2 µM
68 | CC(C)[C@@H](Nc1ncnc2[nH]c(-c3ccnc(C#N)c3)cc12)c1ccc2c(c1)OCCO2 | 2.09 µM and 2.22 µM
69 | CC(C)c1nc(N[C@@H](c2ccc3c(c2)OCCO3)C(C)C)c2cc[nH]c2n1 | > 99.5 µM
70 | CC(C)[C@@H](Nc1ncnc2[nH]c(-c3cnc(C#N)nc3)cc12)c1ccc2c(c1)OCCO2 | 2.52 µM and 2.51 µM
71 | CC(C)[C@@H](Nc1ncnc2[nH]c(C(=O)N(C)C)cc12)c1ccc2c(c1)OCCO2 | 21.9 µM and 18.9 µM
72 | Cc1coc(-c2cc3c(N[C@@H](c4ccc5c(c4)OCCO5)C(C)C)ncnc3[nH]2)c1 | > 99.5 µM

Row | Structure (SMILES) | IC50
73 | Cc1nn(C)nc1-c1cc2c(N[C@@H](c3ccc4c(c3)OCCO4)C(C)C)ncnc2[nH]1 | 27.6 µM and 34.2 µM
74 | N#Cc1ccc(C(=O)Nc2ccc(C(=O)N[C@@H]3c4ccccc4C[C@@H]3C(=O)O)cc2)cc1 | > 99.5 µM
75 | COc1cc(Nc2ccc(C(=O)N[C@@H]3c4cccc(O)c4C[C@H]3C(=O)O)cc2)[nH]n1 | > 99.5 µM
76 | O=C(Nc1ccc(C(=O)N[C@@H]2c3ccccc3C[C@@H]2C(=O)O)cc1)c1ccc(N2CCC(O)CC2)cc1 | > 99.5 µM
77 | CCn1cc(-c2cc3c(N[C@@H](c4ccc5c(c4)OCCO5)C(C)C)ncnc3[nH]2)c(C)n1 | 0.423 µM and 0.473 µM
78 | O=C(O)[C@H](CC1CC1)Nc1ncnc2[nH]ccc12 | > 99.5 µM
79 | CC(C)[C@@H](Nc1ncnc2[nH]cc(S(N)(=O)=O)c12)c1ccc2c(c1)OCCO2 | 3.43 µM and 3.07 µM
80 | CC(C)[C@@H](Nc1ncnc2[nH]c(-c3cccc(C#N)c3)cc12)c1ccc2c(c1)OCCO2 | 17.8 µM and 22.1 µM
81 | c1nc(N[C@@H](c2ccc3c(c2)OCCO3)C2CNC2)c2cc[nH]c2n1 | > 99.5 µM
82 | Cc1cc(-c2cc3c(N[C@@H](c4ccc5c(c4)OCCO5)C(C)C)ncnc3[nH]2)n(C)n1 | 1.07 µM and 1.02 µM
83 | CCn1cc(-c2cc3c(N[C@@H](c4ccc5c(c4)OCCO5)C(C)C)ncnc3[nH]2)cn1 | 0.626 µM and 0.652 µM
84 | COC(=O)c1c[nH]c(-c2cc3c(N[C@@H](c4ccc5c(c4)OCCO5)C(C)C)ncnc3[nH]2)c1 | 2.98 µM and 3.58 µM
85 | CC(C)[C@@H](Nc1ncnc2[nH]c(-c3cnn(CC4CC4)c3)cc12)c1ccc2c(c1)OCCO2 | 0.804 µM and 0.853 µM
86 | CNc1nc(C(=O)N[C@@H](Cc2nn[nH]n2)c2ccc(OC)cc2)c2ccnc-2[nH]1 | 45.7 µM and 44.7 µM
87 | CC(C)[C@@H](Nc1ncnc2[nH]c(-c3ccoc3)cc12)c1ccc2c(c1)OCCO2 | 1.52 µM and 1.64 µM
88 | COc1ccc([C@@H](CC(=O)O)NC(=O)c2c[nH]c3c(NC(=O)NC4CC4)cccc23)cc1 | > 99.5 µM
89 | CC(C)[C@@H](Nc1ncnc2[nH]cc(Br)c12)c1ccc2c(c1)OCCO2 | 10.1 µM and 11.8 µM
90 | CC(C)[C@@H](Nc1ncnc2[nH]c(C3=CCOC3)cc12)c1ccc2c(c1)OCCO2 | 0.421 µM and 0.563 µM
91 | CC(C)[C@@H](Nc1nc(C2CC2)nc2[nH]ccc12)c1ccc2c(c1)OCCO2 | > 99.5 µM
92 | CCC[C@H](Nc1ncnc2[nH]ccc12)C(=O)O | > 99.5 µM
93 | O=C(O)[C@@H]1C[C@@H](O)CN1c1ncnc2[nH]ccc12 | > 99.5 µM
